Laboratory results reported in patent US20200113902A1, “COMPOSITIONS AND METHODS FOR TREATING CANCERS WITH COVALENT INHIBITORS OF CYCLIN-DEPENDENT KINASE 7 (CDK7)” (Syros Pharmaceuticals, Inc., priority 2017, published 2020).

Tests used:
[1] = system: MCL1 protein in MDAMB453 cells; assay: Western blot of BCL2 family proteins, MDAMB453; type: cell-based, human; details: 50 nM or 100 nM, 24 hours
Procedure: Cytotoxic cancer cell lines HCC70 and TOV21G, and cytostatic cancer cell lines T47D and COV318 were seeded in wells of a six-well dish at a density of 1×10^6 cells/well and allowed to adhere overnight. Cells were then treated with 50 nM of Compound 1 for 16 or 24 hours, or with DMSO (0 hours) representing a negative control. Cells were harvested and placed on ice, and resuspended in RIPA lysis buffer supplemented with protease and phosphatase inhibitors. Clarified lysates prepared with 4×LSD running buffer and boiled at 95° C. for 5 minutes. Equivalent amounts of sample (10 μg total protein) were run on a 4-12% Bis-Tris gel and transferred to a PDVF membrane for Western blotting using standard Western blotting protocols. Membranes were blocked with Licor TBS blocking buffer then probed with antibodies for BCL-XL, BCL-2, MCL1, BID, and GAPDH visualized using and Odyssey imager (FIGS. 23A and 23D).
In a similar experiment, TNBC breast cancer cell lines HCC70, MDAMB468, MDAMB453 and CAL-120 were grown as described above and treated with DMSO, 50 nM Compound 1 or 100 nM Compound 1 for 24 hours. Protein samples were prepared as described above for Western blotting using antibodies specific for the indicated proteins in FIG. 29A. […]

[2] = system: gene expression in HCC70 cells; assay: Gene expression profiling via RNA-seq (DESeq2, linear model), HCC70; type: cell-based; details: four hours, JQ1 125 nM, Compound 1 25 nM
Procedure: In addition, we compared the ability of JQ1 alone, Compound 1 alone, and a combination of JQ1 and Compound 1 to modify expression of various genes in two breast cancer cell lines. Two triple-negative breast cancer cell lines (HCC70 and MDA-MB468) were tested. The cell lines were treated with JQ1, Compound 1, the JQ1/Compound 1 combination, or DMSO for four hours, after which gene expression profiling via RNA-seq was performed. JQ1 was administered to the cells at a 125 nM final concentration in both single agent and combination experiments. Compound 1 was administered to the cells at a 25 nM final concentration in both single agent and combination experiments. Each experiment was performed in triplicate. One replicate of MDA-MB-468 treated with single-agent JQ1 was excluded from further analysis due to quality.
We employed DESeq2 (Love et al., Genome Biology, 15(12):550, 2014) to identify changes in gene expression due to the JQ1, Compound 1, and JQ1-Compound 1 combination treatment compared to the control DMSO condition based on the RNA-seq data. Genes resulting in a p-value below 0.01 and an absolute logFoldChange above 0.5 were considered to be differentially expressed. […] The same is true for 1459 of 2414 genes in MDA-MB468.
To identify the genes whose expression is impacted synergistically by the drug combination, we modeled the effect of each drug treatment on expression using a linear model. The expression of each gene after the combination treatment can be thought of as the combined impact of Compound 1, JQ1, and any synergistic interaction between the drug treatments on baseline gene expression. A linear model used to describe this relationship could therefore be represented as:
Gene Expression after combination treatment=Baseline Expression+Compound 1 effect+JQ1 effect+Combination effect (Synergistic Impact)
By fitting the expression data for each gene using this model, we were able to evaluate the effect of each treatment, and identify cases where a synergistic interaction between Compound 1 and JQ1 impacts final gene expression. After fitting the linear model to each gene, the weight and p-value of each term can be evaluated. The combination term's weight signifies the mean change resulting from a synergetic impact on expression, with a negative weight indicating synergistic downregulation. Its associated p-value represents the probability that the combination term is not relevant to final gene expression. Using this approach, we identified 1806 genes in HCC70 and 2205 genes in MDA-MB468 whose expression change in the combination treatment was synergistic and whose associated p-value was less than a threshold cutoff of 0.01. The expression of these synergistic genes could not be explained by an additive effect of Compound 1 and JQ1 alone.

OV15398 xenograft = assay: Ovarian PDX OV15398, tumor volume; type: in vivo, mouse; details: OV15398 (very low CDKN2A); 40 or 30 mg/kg i.v. BIW
Procedure: Patient-derived xenograft (PDX) models from ovarian carcinoma patients (OV5387, OV14702, OV14972, OV15398, OV15576, OV15696, OV15612, OV15631) were established in NOD-SCID mice at Crown Bioscience (San Diego, USA). Cryo vials containing tumor cells were thawed and prepared for injection into mice. Cells were washed in PBS, counted, and resuspended in cold PBS at a concentration of 50,000-100,000 viable cells/100 ul. Cell suspensions were mixed with an equal volume of Cultrex ECM and kept on ice during transport to the vivarium. Cells were prepared for injections by withdrawing ECM-Cell mixture into a chilled slip-tip syringe fitted with a 26G 7/8 (0.5 mm×22 mm) needle. The filled syringes were kept on ice to avoid the solidification of ECM. Each mouse was inoculated subcutaneously in the right flank with 200 uL of the cell suspension. Tumor sizes were measured in two dimensions using a caliper, and the volumes were expressed in mm3 using the formula: V=0.5 a×b^2 where a and b are the longest and shortest diameters of the tumor, respectively. Compound 1 treatment was started when the average tumor size reached 150-200 mm^3.
Compound 1 was formulated in w/v 20% Captisol (pH 4-6) and administered by i.v. twice weekly (BIW) at a final dose of 40 mg/kg or 30 mg/kg in a 10 ml/kg volume. Tumor volumes were measured twice weekly over the course of the study. […]

`CN(C)C/C=C/C(=O)Nc1ccc(C(=O)N[C@@]2(C)CCC[C@@H](Nc3ncc(Cl)c(-c4c[nH]c5ccccc45)n3)C2)nc1` [Compound 1, N-((1S,3R)-3-(5-chloro-4-(1H-indol-3-yl)pyrimidin-2-ylamino)-1-methylcyclohexyl)-5-((E)-4-(dimethylamino)but-2-enamido)picolinamide] was tested, and the “MCL1 protein level (Western blot)” value [1] was “downregulated”, the “Average Expression (TPM) GATA3” value ([2]; DMSO 32.685) was 22.404 TPM and the “Average Expression (TPM) FOXC1” value ([2]; DMSO 40.481) was 25.768 TPM. For the same compound, the “Average Expression (TPM) TGIF1” value ([2]; DMSO 62.523) was 68.293 TPM and the “Response to treatment (tumor growth)” value (OV15398 xenograft) was “responded”.
